Earlier results as cited in patent US6797806B2, “Fragments of CR1 and their use” (AdProTech Limited, priority 1996, dated 2004).

Tests used:
[1] = systemic inhibition of CA over 6 days
[2] = in vivo
[3] = in vivo; remark: listed apart in the source
[4] = in vivo; remark: listed apart in the source
[5] = test system: myeloperoxidase activity (an indicator of neutrophil accumulation); details: rat

sCR1: soluble CR1 construct, complement inhibitor, molecular weight 245 kilodaltons
CNS inflammation, demyelination and deposition of complement components [1]: blocked
clinical score [1]: improvements in clinical score
activity in a reversed passive Arthus reaction [2]: demonstrated in vivo activity
post-ischemic myocardial inflammation and necrosis [3]: suppressed
survival rates following transplantation [4]: extended survival rates
myeloperoxidase activity following traumatic injury [5]: reduce myeloperoxidase activity
